{"source": "paper PMC6268995", "about": "“(E)-5-Styryl-1H-indole and (E)-6-Styrylquinoline Derivatives Serve as Probes for β-Amyloid Plaques” (Molecules, 2012)", "key": {"Aβ1–40 aggregates [1]": {"molecular_target": "T1, Aβ1–40 aggregates (Homo sapiens, UniProt P05067)", "T1 construct": "β-amyloid(1–40) were purchased from AnaSpec; purchased AnaSpec (San Jose, CA, USA)", "T1 sequence (P05067 672-711 limits assumed)": "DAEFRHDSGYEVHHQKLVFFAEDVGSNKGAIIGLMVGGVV", "assay": "Competition binding assay on Aβ1–40 aggregates using [125I]TZDM as radio-ligand", "details": "Aβ1–40 aggregates against [125I]TZDM; triplicate, mean ± SD", "experimental": "The lyophilized white powder of β-amyloid(1–40) were purchased from AnaSpec (San Jose, CA, USA). After reconstituted by adding basic buffer (1% NH4OH. 60–70 μL) to β-amyloid (1–40) (1 mg) aggregation of Aβ1–40 was carried out by gently dissolving Aβ1–40 (0.25 mg/mL) in a PBS buffer (pH 7.4). The solution was incubated at 37 °C for 72 h with gentle and constant shaking. Binding studies were carried out according to the procedure described previously with some modifications using [^125I]TZDM as the radiolabeled standard. […] The mixture was incubated at 37 °C for 2 h. […] Filters containing the bound ^125I ligand were counted in a γ-counter (WALLAC Wizard 1470, PerkinElmer Life Sciences, Waltham, MA, USA) with 75% counting efﬁciency. The IC50 values were determined using GraphPad Prism 5.0, and those for the inhibition constant (Ki) were calculated using the Cheng Prusoff equation: Ki = IC50/(1 + [L]/Kd)."}, "Aβ1–40 aggregates [2]": {"molecular_target": "T1, Aβ1–40 aggregates", "set-up": "method as in PMID 11384236", "details": "literature value ref 21; cited from earlier work"}, "[3]": {"assay": "Partition coefficient determination (n-octanol/PBS)", "assay_type": "physicochemical", "details": "n-octanol / PBS 0.02 M, pH 7.4", "experimental": "The determination of partition coefﬁcients of [^125I]8 and [^125I]17 was performed according to the procedure previously reported with some modifications. Ligand [^125I]8 or [^125I]17 (~5 μCi) was mixed with 3 mL each of n-octanol and PBS (0.02 M, pH 7.4) in a test tube. The test tube was vortexed for 5 min at room temperature, followed by centrifugation for 10 min at 3,000 rpm. Two weighed samples from the n-octanol (50 µL) and buffer layers (400 µL) were counted in a γ-counter. The partition coefﬁcient was expressed as the logarithm of the ratio of the counts per gram from n-octanol versus that of PBS. Samples from the n-octanol layer were repartitioned until consistent partition coefﬁcient values were obtained. The measurements were done in triplicate and repeated three times."}, "[4]": {"assay": "In vivo biodistribution in normal mice", "set-up": "species or system KunMing normal mice", "details": "for Biodistribution Blood / Biodistribution Brain / Biodistribution Heart / Biodistribution Kidney / Biodistribution Liver / Biodistribution Lung / Biodistribution Muscle / Biodistribution Spleen / Biodistribution Stomach: iv injection", "experimental": "In vivo biodistribution studies were performed in KunMing normal mice (female, average weight 18–22 g) and in accordance with the national laws related to the care and experiments on laboratory animal. A saline solution (100 µL) containing [^125I]8 or [^125I]17 (1 µCi) was injected directly into the tail vein of mice. The mice (n = 5 for each time point) were sacriﬁced at designated time points post-injection. The organs of interest were removed and weighed, and the radioactivity was counted with an automatic γ-counter (WALLAC Wizard 1470)."}, "Aβ plaques": {"molecular_target": "Aβ plaques (Homo sapiens, UniProt P05067)", "sequence (P05067 672-711 limits assumed)": "as above", "assay": "In vitro labeling of brain sections from transgenic mouse by autoradiography", "assay_type": "binding, transgenic model mouse (APP/PS1)", "details": "APP/PS1, 12 months, male", "experimental": "The brain sections mentioned above were incubated with [^125I]8 (5 µCi/100µL) for about 20 min at room temperature. Then the sections were washed with saturated Li2CO3 in 40% EtOH for 3 min and 40% EtOH for 3 min, followed by rinsing with water for 30 s. After drying, the ^125I-labeled sections were exposed to phosphorus ﬁlm for 8 h and then scanned with the phosphor imaging system (Cyclone, Packard) at the resolution of 600 dpi. The presence and localization of plaques were confirmed by the ﬂuorescent staining with thioﬂavin-S on the same sections using a Stereo Discovery V12 (Zeiss) instrument equipped with a LP 505 filter set (excitation: 405 nm)."}}, "note": "Entries after “also recorded” stand apart in the source; their conditions may differ. Read-outs that look alike come from different tables or passages of the source.", "data": [{"smiles": "CN(C)c1ccc(-c2nc3ccc(I)cc3s2)cc1", "note": "[TZDM, reference compound]", "values": [{"measurement": "Ki", "setting": "Aβ1–40 aggregates [1]", "result": "4.2 ± 0.4", "unit": "nM"}, {"measurement": "Ki", "setting": "Aβ1–40 aggregates [2]", "result": "0.9 ± 0.2", "unit": "nM"}]}, {"smiles": "[125I]c1ccc(/C=C/c2ccc3[nH]ccc3c2)cc1", "note": "[[^125I]8]", "values": [{"measurement": "logD", "setting": "[3]", "result": 2.52}, {"measurement": "brain2min/brain60min ratio", "setting": "[4]; index of washout rate from normal brain", "result": 15.3}, {"measurement": "Biodistribution Blood", "setting": "[4]; 2 min", "result": "11.91 ± 0.62", "unit": "% ID/g"}, {"measurement": "Biodistribution Brain", "setting": "[4]; 2 min", "result": "4.27 ± 0.49", "unit": "% ID/g"}, {"measurement": "Biodistribution Heart", "setting": "[4]; 2 min", "result": "5.76 ± 0.38", "unit": "% ID/g"}, {"measurement": "Biodistribution Kidney", "setting": "[4]; 2 min", "result": "11.66 ± 1.52", "unit": "% ID/g"}, {"measurement": "Biodistribution Liver", "setting": "[4]; 2 min", "result": "14.73 ± 0.66", "unit": "% ID/g"}, {"measurement": "Biodistribution Lung", "setting": "[4]; 2 min", "result": "10.76 ± 0.63", "unit": "% ID/g"}, {"measurement": "Biodistribution Muscle", "setting": "[4]; 2 min", "result": "2.64 ± 0.40", "unit": "% ID/g"}, {"measurement": "Biodistribution Spleen", "setting": "[4]; 2 min", "result": "4.38 ± 0.33", "unit": "% ID/g"}, {"measurement": "Biodistribution Stomach", "setting": "[4]; 2 min", "result": "1.23 ± 0.56", "unit": "% ID/organ"}, {"measurement": "Biodistribution Blood", "setting": "[4]; 15 min", "result": "12.29 ± 1.30", "unit": "% ID/g"}, {"measurement": "Biodistribution Brain", "setting": "[4]; 15 min", "result": "1.37 ± 0.16", "unit": "% ID/g"}, {"measurement": "Biodistribution Heart", "setting": "[4]; 15 min", "result": "3.70 ± 0.40", "unit": "% ID/g"}, {"measurement": "Biodistribution Kidney", "setting": "[4]; 15 min", "result": "14.89 ± 4.23", "unit": "% ID/g"}, {"measurement": "Biodistribution Liver", "setting": "[4]; 15 min", "result": "10.66 ± 0.31", "unit": "% ID/g"}, {"measurement": "Biodistribution Lung", "setting": "[4]; 15 min", "result": "8.22 ± 0.88", "unit": "% ID/g"}, {"measurement": "Biodistribution Muscle", "setting": "[4]; 15 min", "result": "2.01 ± 0.24", "unit": "% ID/g"}, {"measurement": "Biodistribution Spleen", "setting": "[4]; 15 min", "result": "4.21 ± 0.26", "unit": "% ID/g"}, {"measurement": "Biodistribution Stomach", "setting": "[4]; 15 min", "result": "4.82 ± 0.46", "unit": "% ID/organ"}, {"measurement": "Biodistribution Blood", "setting": "[4]; 30 min", "result": "7.64 ± 0.62", "unit": "% ID/g"}, {"measurement": "Biodistribution Brain", "setting": "[4]; 30 min", "result": "0.64 ± 0.11", "unit": "% ID/g"}, {"measurement": "Biodistribution Heart", "setting": "[4]; 30 min", "result": "2.55 ± 0.52", "unit": "% ID/g"}, {"measurement": "Biodistribution Kidney", "setting": "[4]; 30 min", "result": "9.46 ± 1.95", "unit": "% ID/g"}, {"measurement": "Biodistribution Liver", "setting": "[4]; 30 min", "result": "7.14 ± 1.13", "unit": "% ID/g"}, {"measurement": "Biodistribution Lung", "setting": "[4]; 30 min", "result": "5.39 ± 0.83", "unit": "% ID/g"}, {"measurement": "Biodistribution Muscle", "setting": "[4]; 30 min", "result": "1.25 ± 0.04", "unit": "% ID/g"}, {"measurement": "Biodistribution Spleen", "setting": "[4]; 30 min", "result": "3.44 ± 0.21", "unit": "% ID/g"}, {"measurement": "Biodistribution Stomach", "setting": "[4]; 30 min", "result": "3.50 ± 0.19", "unit": "% ID/organ"}, {"measurement": "Biodistribution Blood", "setting": "[4]; 60 min", "result": "4.49 ± 0.28", "unit": "% ID/g"}, {"measurement": "Biodistribution Brain", "setting": "[4]; 60 min", "result": "0.28 ± 0.06", "unit": "% ID/g"}, {"measurement": "Biodistribution Heart", "setting": "[4]; 60 min", "result": "1.59 ± 0.28", "unit": "% ID/g"}, {"measurement": "Biodistribution Kidney", "setting": "[4]; 60 min", "result": "4.65 ± 0.98", "unit": "% ID/g"}, {"measurement": "Biodistribution Liver", "setting": "[4]; 60 min", "result": "4.45 ± 0.23", "unit": "% ID/g"}, {"measurement": "Biodistribution Lung", "setting": "[4]; 60 min", "result": "3.28 ± 0.10", "unit": "% ID/g"}, {"measurement": "Biodistribution Muscle", "setting": "[4]; 60 min", "result": "0.81 ± 0.12", "unit": "% ID/g"}, {"measurement": "Biodistribution Spleen", "setting": "[4]; 60 min", "result": "2.44 ± 0.12", "unit": "% ID/g"}, {"measurement": "Biodistribution Stomach", "setting": "[4]; 60 min", "result": "1.72 ± 0.21", "unit": "% ID/organ"}, {"measurement": "Biodistribution Blood", "setting": "[4]; 120 min", "result": "2.93 ± 0.30", "unit": "% ID/g"}, {"measurement": "Biodistribution Brain", "setting": "[4]; 120 min", "result": "0.20 ± 0.08", "unit": "% ID/g"}, {"measurement": "Biodistribution Heart", "setting": "[4]; 120 min", "result": "1.47 ± 0.48", "unit": "% ID/g"}, {"measurement": "Biodistribution Kidney", "setting": "[4]; 120 min", "result": "1.93 ± 0.76", "unit": "% ID/g"}, {"measurement": "Biodistribution Liver", "setting": "[4]; 120 min", "result": "4.19 ± 0.61", "unit": "% ID/g"}, {"measurement": "Biodistribution Lung", "setting": "[4]; 120 min", "result": "2.30 ± 0.20", "unit": "% ID/g"}, {"measurement": "Biodistribution Muscle", "setting": "[4]; 120 min", "result": "0.61 ±0.24", "unit": "% ID/g"}, {"measurement": "Biodistribution Spleen", "setting": "[4]; 120 min", "result": "1.87 ± 0.28", "unit": "% ID/g"}, {"measurement": "Biodistribution Stomach", "setting": "[4]; 120 min", "result": "3.48 ± 0.79", "unit": "% ID/organ"}, {"measurement": "Biodistribution Blood", "setting": "[4]; 240 min", "result": "1.50 ± 0.13", "unit": "% ID/g"}, {"measurement": "Biodistribution Brain", "setting": "[4]; 240 min", "result": "0.10 ± 0.02", "unit": "% ID/g"}, {"measurement": "Biodistribution Heart", "setting": "[4]; 240 min", "result": "0.65 ± 0.16", "unit": "% ID/g"}, {"measurement": "Biodistribution Kidney", "setting": "[4]; 240 min", "result": "1.34 ± 0.36", "unit": "% ID/g"}, {"measurement": "Biodistribution Liver", "setting": "[4]; 240 min", "result": "3.06 ± 0.36", "unit": "% ID/g"}, {"measurement": "Biodistribution Lung", "setting": "[4]; 240 min", "result": "1.43 ± 0.52", "unit": "% ID/g"}, {"measurement": "Biodistribution Muscle", "setting": "[4]; 240 min", "result": "0.35 ± 0.09", "unit": "% ID/g"}, {"measurement": "Biodistribution Spleen", "setting": "[4]; 240 min", "result": "1.37 ± 0.09", "unit": "% ID/g"}, {"measurement": "Biodistribution Stomach", "setting": "[4]; 240 min", "result": "2.31 ± 1.44", "unit": "% ID/organ"}, {"measurement": "Autoradiography labeling of Aβ plaques", "setting": "Aβ plaques", "result": "intense and specific labeling of Aβ plaques; also recorded: excellent labeling of Aβ plaques in the cortex region; also recorded: clearly labeled amyloid plaques in the cortex region"}]}]}
